Laboratory results reported in PubChem BioAssay AID330 (DTP/NCI, 2004).
Several values for one entry are separate records, joined by “and”; a condition that tells them apart may be missing. Equal values may be shown once. Inconclusive results and toxic doses are left out. The calls were made as follows: active = survival T/C of 150% or more; inactive = T/C below 125% in these data.

Test system: P388 leukemia ip, CD2F1 mice, survival T/C
Assay: NCI In Vivo Anticancer Drug Screen. Data for tumor model P388 Leukemia (intraperitoneal) in CD2F1 (CDF1) mice
Conditions: endpoint: median survival time, higher = longer survival
Method in brief: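 Mice carrying the transplanted tumor received test compound or vehicle. Survival was recorded in each group, and the value is the treated-group measurement divided by that of the vehicle-treated control group.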

[1] = dose: 50.0 mg/kg/injection, schedule: Q01DX005 (ip), vehicle: Klucel (hydroxypropylcellulose) (HPC)
[2] = dose: 100.0 mg/kg/injection, schedule: Q01DX005 (ip), vehicle: Klucel (hydroxypropylcellulose) (HPC)
[3] = dose: 200.0 mg/kg/injection, schedule: Q01DX005 (ip), vehicle: Klucel (hydroxypropylcellulose) (HPC)

Measured: T/C

O=C1c2c(O)ccc(O)c2C(=O)c2c(NCCCO)ccc(NCCCO)c21
inactive: dose: 0.62 mg/kg/injection, schedule: Q01DX009 (ip), vehicle: acid diluted with saline 110 % of control | dose: 1.25 mg/kg/injection, schedule: Q01DX009 (ip), vehicle: acid diluted with saline 103 % of control | dose: 2.5 mg/kg/injection, schedule: Q01DX009 (ip), vehicle: acid diluted with saline 100 % of control | dose: 5.0 mg/kg/injection, schedule: Q01DX009 (ip), vehicle: acid diluted with saline 107 % of control | dose: 10.0 mg/kg/injection, schedule: Q01DX009 (ip), vehicle: acid diluted with saline 98 % of control | dose: 20.0 mg/kg/injection, schedule: Q01DX009 (ip), vehicle: acid diluted with saline 100 % of control | dose: 40.0 mg/kg/injection, schedule: Q01DX009 (ip), vehicle: acid diluted with saline 100 % of control | dose: 80.0 mg/kg/injection, schedule: Q01DX009 (ip), vehicle: acid diluted with saline 91 % of control

CC12CC=CCC1CCC1C2CCC2(C)C(O)C(O)CC12 (stereo unspecified)
inactive: [1] 101 % of control | [2] 95 % of control | [3] 93 % of control

Cc1cc(=O)[nH]c(NNC(=O)c2ccc(Cl)cc2)n1
inactive: dose: 25.0 mg/kg/injection, schedule: Q01DX009 (ip), vehicle: distilled water + Tween-80 93 % of control | dose: 50.0 mg/kg/injection, schedule: Q01DX009 (ip), vehicle: distilled water + Tween-80 86 % of control | dose: 100.0 mg/kg/injection, schedule: Q01DX009 (ip), vehicle: distilled water + Tween-80 93 % of control | dose: 200.0 mg/kg/injection, schedule: Q01DX009 (ip), vehicle: distilled water + Tween-80 89 % of control | dose: 400.0 mg/kg/injection, schedule: Q01DX009 (ip), vehicle: distilled water + Tween-80 101 % of control

C=C1C(=O)OC2C1C(OC(=O)/C(C)=C/CO)C/C(C)=C/CCC1(CO)OC21 (stereo unspecified)
inactive: dose: 0.5 mg/kg/injection, schedule: Q01DX009 (ip), vehicle: Klucel (hydroxypropylcellulose) (HPC) 100 % of control | dose: 1.0 mg/kg/injection, schedule: Q01DX009 (ip), vehicle: Klucel (hydroxypropylcellulose) (HPC) 91 % of control | dose: 2.0 mg/kg/injection, schedule: Q01DX009 (ip), vehicle: Klucel (hydroxypropylcellulose) (HPC) 100 % of control | dose: 4.0 mg/kg/injection, schedule: Q01DX009 (ip), vehicle: Klucel (hydroxypropylcellulose) (HPC) 103 % of control and 113 % of control | dose: 8.0 mg/kg/injection, schedule: Q01DX009 (ip), vehicle: Klucel (hydroxypropylcellulose) (HPC) 105 % of control | dose: 16.0 mg/kg/injection, schedule: Q01DX009 (ip), vehicle: Klucel (hydroxypropylcellulose) (HPC) 118 % of control

CCCCOc1ccc(C(C)c2cc3c(cc2OCC)OCO3)cc1 (stereo unspecified)
inactive: dose: 25.0 mg/kg/injection, schedule: Q01DX005 (ip), vehicle: Klucel (hydroxypropylcellulose) (HPC) 103 % of control | [1] 103 % of control | [2] 100 % of control | [3] 104 % of control

O=C(C#Cc1ccccc1)c1ccccc1
inactive: dose: 12.5 mg/kg/injection, schedule: Q01DX009 (ip), vehicle: saline with Tween-80 122 % of control and 124 % of control | dose: 25.0 mg/kg/injection, schedule: Q01DX009 (ip), vehicle: saline with Tween-80 98 % of control | dose: 50.0 mg/kg/injection, schedule: Q01DX009 (ip), vehicle: saline with Tween-80 121 % of control

Cc1csc(=S)n1C
inactive: dose: 50.0 mg/kg/injection, schedule: Q01DX009 (ip), vehicle: saline 92 % of control | dose: 100.0 mg/kg/injection, schedule: Q01DX009 (ip), vehicle: saline 95 % of control

CN1CCCc2c1n(-c1ccccc1)c(=O)n(-c1ccccc1)c2=O
inactive: [1] 100 % of control | [2] 101 % of control | [3] 99 % of control

CCN(CC)CC.[CH-]1CCCCC1.[CH-]1CCCCC1.[CH3-].[Cl-].[I-].[Sn+4]
inactive: dose: 6.0 mg/kg/injection, schedule: Q01DX005 (ip), vehicle: saline with Tween-80 101 % of control | dose: 12.0 mg/kg/injection, schedule: Q01DX005 (ip), vehicle: saline with Tween-80 102 % of control
